Assay results: ChEMBL document CHEMBL1201861, “Genomics of Drug Sensitity in Cancer screening data, Wellcome Trust Sanger Institute”

Tests used:
Test in all cases: cells
[1] = test system: DMS-114; assay type: functional, cell-based, Homo sapiens; settings: Homo sapiens, DMS-114
[2] = test system: DSH1; assay type: functional, cell-based, Homo sapiens; settings: Homo sapiens, DSH1;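 further: growth inhibition of human DSH1 cells, measured with a cell viability readout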
Description: SANGER: Inhibition of human DSH1 cell growth in a cell viability assay.

[3] = test system: ES4; assay type: functional, cell-based, Homo sapiens; settings: Homo sapiens, ES4;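 further: growth inhibition of human ES4 cells, read out by a cell viability assay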
Description: SANGER: Inhibition of human ES4 cell growth in a cell viability assay.

[4] = test system: ES7; assay type: functional, cell-based, Homo sapiens; settings: Homo sapiens, ES7;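 further: growth inhibition of cultured human ES7 cells, read out as cell viability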
Description: SANGER: Inhibition of human ES7 cell growth in a cell viability assay.

[5] = test system: HCT-116; assay type: functional, cell-based, Homo sapiens; settings: Homo sapiens, HCT-116
Description: SANGER: Inhibition of human HCT-116 cell growth in a cell viability assay.

[6] = test system: HN; assay type: functional, cell-based, Homo sapiens; settings: Homo sapiens, HN
Description: SANGER: Inhibition of human HN cell growth in a cell viability assay.

[7] = test system: HT-1080; assay type: functional, cell-based, Homo sapiens; settings: Homo sapiens, HT-1080
Description: SANGER: Inhibition of human HT-1080 cell growth in a cell viability assay.

[8] = test system: HuCCT-1; assay type: functional, cell-based, Homo sapiens, HuCCT1; settings: Homo sapiens, HuCCT-1;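 further: growth inhibition of HuCCT-1 cells, read out by a cell viability assay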
Description: SANGER: Inhibition of human HuCCT1 cell growth in a cell viability assay.

[9] = test system: JEG-3; assay type: functional, cell-based, Homo sapiens; settings: Homo sapiens, JEG-3;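 further: growth inhibition of human JEG-3 cells, read out with a cell viability assay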
Description: SANGER: Inhibition of human JEG-3 cell growth in a cell viability assay.

[10] = test system: KALS-1; assay type: functional, cell-based, Homo sapiens; settings: Homo sapiens, KALS-1;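 further: growth inhibition of KALS-1 cells, determined with a cell viability assay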
Description: SANGER: Inhibition of human KALS-1 cell growth in a cell viability assay.

[11] = test system: KM12; assay type: functional, cell-based, Homo sapiens; settings: Homo sapiens, KM12;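 further: KM12 cell growth inhibition, read out with a cell viability assay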
Description: SANGER: Inhibition of human KM12 cell growth in a cell viability assay.

[12] = test system: KU812 cell line; assay type: functional, cell-based; settings: Homo sapiens;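 further: growth inhibition of KU812 cells, read out with a cell viability assay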
Description: SANGER: Inhibition of human KU812 cell growth in a cell viability assay.

[13] = test system: KYSE-150 cell line; assay type: functional, cell-based, Homo sapiens; settings: Homo sapiens, KYSE-150;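 further: growth inhibition of human KYSE-150 cells, read out with a cell viability assay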
Description: SANGER: Inhibition of human KYSE-150 cell growth in a cell viability assay.

[14] = test system: L-428; assay type: functional, cell-based; settings: Homo sapiens
Description: SANGER: Inhibition of human L-428 cell growth in a cell viability assay.

[15] = test system: LB2241-RCC; assay type: functional, cell-based, Homo sapiens; settings: Homo sapiens, LB2241-RCC;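 further: cell viability assay measuring how strongly the cultured human renal carcinoma line is prevented from growing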
Description: SANGER: Inhibition of human LB2241-RCC cell growth in a cell viability assay.

[16] = test system: LB996-RCC; assay type: functional, cell-based; settings: Homo sapiens
Description: SANGER: Inhibition of human LB996-RCC cell growth in a cell viability assay.

[17] = test system: LOX IMVI; assay type: functional, cell-based; settings: Homo sapiens
Description: SANGER: Inhibition of human LOXIMVI cell growth in a cell viability assay.

[18] = test system: Lu-65; assay type: functional, cell-based; settings: Homo sapiens;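 further: growth inhibition of Lu-65 cancer cells, read out by a cell viability assay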
Description: SANGER: Inhibition of human LU-65 cell growth in a cell viability assay.

[19] = test system: M14; assay type: functional, cell-based, Homo sapiens; settings: Homo sapiens, M14;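 further: growth inhibition of M14 cells, read out with a cell viability assay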
Description: SANGER: Inhibition of human M14 cell growth in a cell viability assay.

[20] = test system: MDA-MB-157; assay type: functional, cell-based, Homo sapiens; settings: Homo sapiens, MDA-MB-157
Description: SANGER: Inhibition of human MDA-MB-157 cell growth in a cell viability assay.

[21] = test system: MFE-280; assay type: functional, cell-based, Homo sapiens; settings: Homo sapiens, MFE-280;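 further: growth inhibition of MFE-280 cells, determined with a cell viability readout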
Description: SANGER: Inhibition of human MFE-280 cell growth in a cell viability assay.

[22] = test system: MHH-PREB-1; assay type: functional, cell-based; settings: Homo sapiens;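 further: cell viability assay measuring inhibition of proliferation of human MHH-PREB-1 cells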
Description: SANGER: Inhibition of human MHH-PREB-1 cell growth in a cell viability assay.

[23] = test system: MZ2-MEL; assay type: functional, cell-based, Homo sapiens; settings: Homo sapiens, MZ2-MEL;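 further: growth inhibition of MZ2-MEL cells read out with a cell viability assay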
Description: SANGER: Inhibition of human MZ2-MEL cell growth in a cell viability assay.

[24] = test system: NCI-H1623; assay type: functional, cell-based, Homo sapiens; settings: Homo sapiens, NCI-H1623;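 further: cell viability assay used as the read-out for growth inhibition of NCI-H1623 cells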
Description: SANGER: Inhibition of human NCI-H1623 cell growth in a cell viability assay.

[25] = test system: NCI-H1993; assay type: functional, cell-based, Homo sapiens; settings: Homo sapiens, NCI-H1993;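 further: growth inhibition of the cancer cell line, assessed with a cell viability assay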
Description: SANGER: Inhibition of human NCI-H1993 cell growth in a cell viability assay.

[26] = test system: NCI-H226; assay type: functional, cell-based, Homo sapiens; settings: Homo sapiens, NCI-H226;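 further: cell viability read-out used to gauge growth inhibition of the cells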
Description: SANGER: Inhibition of human NCI-H226 cell growth in a cell viability assay.

[27] = test system: NCI-H661; assay type: functional, cell-based, Homo sapiens; settings: Homo sapiens, NCI-H661;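 further: cell viability assay read-out, IC50 being the concentration that inhibits growth of the cells by half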
Description: SANGER: Inhibition of human NCI-H661 cell growth in a cell viability assay.

[28] = test system: NCI-H82; assay type: functional, cell-based; settings: Homo sapiens;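 further: growth inhibition of NCI-H82 cells, measured with a cell viability readout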
Description: SANGER: Inhibition of human NCI-H82 cell growth in a cell viability assay.

[29] = test system: SNU1; assay type: functional, cell-based; settings: Homo sapiens;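 further: growth inhibition of human NCI-SNU-1 cells, measured with a cell viability assay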
Description: SANGER: Inhibition of human NCI-SNU-1 cell growth in a cell viability assay.

[30] = test system: NUGC-3; assay type: functional, cell-based, Homo sapiens; settings: Homo sapiens, NUGC-3;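 further: growth inhibition of human NUGC-3 cells, read out with a cell viability assay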
Description: SANGER: Inhibition of human NUGC-3 cell growth in a cell viability assay.

[31] = test system: OVCAR-3; assay type: functional, cell-based, Homo sapiens; settings: Homo sapiens, OVCAR-3;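 further: growth inhibition of human OVCAR-3 cells, determined by a cell viability assay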
Description: SANGER: Inhibition of human OVCAR-3 cell growth in a cell viability assay.

[32] = test system: RCC10RGB; assay type: functional, cell-based, Homo sapiens; settings: Homo sapiens, RCC10RGB;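 further: growth inhibition of human RCC10RGB cells, read out by a cell viability assay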
Description: SANGER: Inhibition of human RCC10RGB cell growth in a cell viability assay.

[33] = test system: SBC-5; assay type: functional, cell-based, Homo sapiens; settings: Homo sapiens, SBC-5;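 further: cell viability assay read-out, IC50 is the concentration that inhibits growth of the cells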
Description: SANGER: Inhibition of human SBC-5 cell growth in a cell viability assay.

[34] = test system: SCH; assay type: functional, cell-based, Homo sapiens; settings: Homo sapiens, SCH;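 further: growth inhibition of human SCH cells, read out in a cell viability assay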
Description: SANGER: Inhibition of human SCH cell growth in a cell viability assay.

[35] = test system: SJSA-1; assay type: functional, cell-based, Homo sapiens; settings: Homo sapiens, SJSA-1;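 further: growth inhibition of human SJSA-1 cells, read out through a cell viability measurement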
Description: SANGER: Inhibition of human SJSA-1 cell growth in a cell viability assay.

[36] = test system: SK-MEL-2; assay type: functional, cell-based, Homo sapiens; settings: Homo sapiens, SK-MEL-2;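 further: growth inhibition of human SK-MEL-2 cells measured with a cell viability assay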
Description: SANGER: Inhibition of human SK-MEL-2 cell growth in a cell viability assay.

[37] = test system: SNB-75; assay type: functional, cell-based, Homo sapiens; settings: Homo sapiens, SNB-75;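 further: cell viability assay measuring growth inhibition of human SNB-75 cells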
Description: SANGER: Inhibition of human SNB75 cell growth in a cell viability assay.

[38] = test system: SW13; assay type: functional, cell-based, Homo sapiens; settings: Homo sapiens, SW13;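 further: IC50 is inhibition of SW13 cell growth, read out with a cell viability assay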
Description: SANGER: Inhibition of human SW13 cell growth in a cell viability assay.

[39] = test system: SW1573; assay type: functional, cell-based, Homo sapiens; settings: Homo sapiens, SW1573;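 further: growth inhibition of SW1573 cells, read out with a cell viability assay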
Description: SANGER: Inhibition of human SW1573 cell growth in a cell viability assay.

[40] = test system: SW1990; assay type: functional, cell-based, Homo sapiens; settings: Homo sapiens, SW1990;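 further: cell growth inhibition determined with a viability assay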
Description: SANGER: Inhibition of human SW1990 cell growth in a cell viability assay.

[41] = test system: TCC-SUP; assay type: functional, cell-based, Homo sapiens; settings: Homo sapiens, TCC-SUP;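 further: growth inhibition of TCC-SUP cells, read out with a cell viability assay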
Description: SANGER: Inhibition of human TCCSUP cell growth in a cell viability assay.

[42] = test system: BFTC-909; assay type: functional, cell-based, Homo sapiens; settings: Homo sapiens, BFTC-909
Description: SANGER: Inhibition of human BFTC-909 cell growth in a cell viability assay.

[43] = test system: BV-173; assay type: functional, cell-based; settings: Homo sapiens
Description: SANGER: Inhibition of human BV-173 cell growth in a cell viability assay.

[44] = test system: C32; assay type: functional, cell-based, Homo sapiens; settings: Homo sapiens, C32;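 further: cell viability assay, with IC50 reflecting inhibition of C32 cell growth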
Description: SANGER: Inhibition of human C32 cell growth in a cell viability assay.

[45] = test system: CAL-54; assay type: functional, cell-based, Homo sapiens; settings: Homo sapiens, CAL-54;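 further: growth inhibition of CAL-54 cells, read out by a viability measurement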
Description: SANGER: Inhibition of human CAL-54 cell growth in a cell viability assay.

[46] = test system: TGW; assay type: functional, cell-based; settings: Homo sapiens;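 further: growth inhibition of human TGW cells, read out with a cell viability assay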
Description: SANGER: Inhibition of human TGW cell growth in a cell viability assay.

[47] = test system: VM-CUB-1; assay type: functional, cell-based; settings: Homo sapiens;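 further: cell viability assay measuring growth inhibition of the human VM-CUB-1 cell line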
Description: SANGER: Inhibition of human VM-CUB-1 cell growth in a cell viability assay.

[48] = test system: VMRC-RCZ; assay type: functional, cell-based; settings: Homo sapiens;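 further: growth inhibition measured with a cell viability assay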
Description: SANGER: Inhibition of human VMRC-RCZ cell growth in a cell viability assay.

[49] = test system: no-10; assay type: functional, cell-based, Homo sapiens; settings: Homo sapiens;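 further: growth inhibition of no-10 cells, read out with a cell viability assay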
Description: SANGER: Inhibition of human no-10 cell growth in a cell viability assay.

[50] = test system: no-11; assay type: functional, cell-based, Homo sapiens; settings: Homo sapiens;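 further: growth inhibition of human NO-11 cells, read out with a cell viability assay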
Description: SANGER: Inhibition of human no-11 cell growth in a cell viability assay.

[51] = test system: CHL-1; assay type: functional, cell-based, Homo sapiens; settings: Homo sapiens, CHL-1;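 further: cell growth inhibition, read out with a cell viability assay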
Description: SANGER: Inhibition of human CHL-1 cell growth in a cell viability assay.

[52] = test system: CHP-212; assay type: functional, cell-based, Homo sapiens; settings: Homo sapiens, CHP-212
Description: SANGER: Inhibition of human CHP-212 cell growth in a cell viability assay.

## COc1cc(F)c(F)c(Nc2ccc(I)cc2F)c1NS(=O)(=O)C1(CC(O)CO)CC1 (stereo unspecified)
[1]
  IC50: > 5 µM
[2]
  IC50: > 5 µM
[3]
  IC50: > 5 µM
[4]
  IC50: > 5 µM
[5]
  IC50: 0.524 µM
[6]
  IC50: 1.12 µM
[7]
  IC50: 0.538 µM
[8]
  IC50: 0.905 µM
[9]
  IC50: > 5 µM
[10]
  IC50: > 5 µM
[11]
  IC50: > 5 µM
[12]
  IC50: 0.239 µM
[13]
  IC50: 3.4 µM
[14]
  IC50: > 5 µM
[15]
  IC50: 3.3 µM
[16]
  IC50: > 5 µM
[17]
  IC50: 0.477 µM
[18]
  IC50: 3.28 µM
[19]
  IC50: 0.0286 µM
[20]
  IC50: > 5 µM
[21]
  IC50: > 5 µM
[22]
  IC50: > 5 µM
[23]
  IC50: 0.319 µM
[24]
  IC50: 1.78 µM
[25]
  IC50: > 5 µM
[26]
  IC50: > 5 µM
[27]
  IC50: > 5 µM
[28]
  IC50: > 5 µM
[29]
  IC50: 1.24 µM
[30]
  IC50: 4.34 µM
[31]
  IC50: > 5 µM
[32]
  IC50: > 5 µM
[33]
  IC50: > 5 µM
[34]
  IC50: > 5 µM
[35]
  IC50: 0.158 µM
[36]
  IC50: 0.101 µM
[37]
  IC50: > 5 µM
[38]
  IC50: 4.33 µM
[39]
  IC50: > 5 µM
[40]
  IC50: > 5 µM
[41]
  IC50: > 5 µM
[42]
  IC50: > 5 µM
[43]
  IC50: 2.38 µM
[44]
  IC50: 0.0572 µM
[45]
  IC50: > 5 µM
[46]
  IC50: > 5 µM
[47]
  IC50: 3.65 µM
[48]
  IC50: > 5 µM
[49]
  IC50: > 5 µM
[50]
  IC50: > 5 µM
[51]
  IC50: 1.18 µM
[52]
  IC50: 0.00492 µM

## O=c1cc(-c2cccc3c2Sc2ccccc2S3)oc(N2CCOCC2)c1 [KU-55933]
[1]
  IC50: > 10 µM
[2]
  IC50: > 10 µM
[3]
  IC50: > 10 µM
[4]
  IC50: > 10 µM
[5]
  IC50: > 10 µM
[6]
  IC50: > 10 µM
[7]
  IC50: > 10 µM
[8]
  IC50: > 10 µM
[9]
  IC50: > 10 µM
[10]
  IC50: > 10 µM
[11]
  IC50: 9.21 µM
[13]
  IC50: > 10 µM
[14]
  IC50: > 10 µM
[15]
  IC50: > 10 µM
[16]
  IC50: > 10 µM
[17]
  IC50: > 10 µM
[19]
  IC50: > 10 µM
[20]
  IC50: > 10 µM
[21]
  IC50: > 10 µM
[22]
  IC50: > 10 µM
[23]
  IC50: > 10 µM
[24]
  IC50: > 10 µM
[25]
  IC50: > 10 µM
[26]
  IC50: > 10 µM
[27]
  IC50: > 10 µM
[28]
  IC50: > 10 µM
[29]
  IC50: > 10 µM
[30]
  IC50: > 10 µM
[31]
  IC50: > 10 µM
[32]
  IC50: > 10 µM
[33]
  IC50: > 10 µM
[34]
  IC50: > 10 µM
[35]
  IC50: > 10 µM
[36]
  IC50: > 10 µM
[37]
  IC50: > 10 µM
[38]
  IC50: > 10 µM
[39]
  IC50: > 10 µM
[40]
  IC50: > 10 µM
[41]
  IC50: > 10 µM
[42]
  IC50: > 10 µM
[44]
  IC50: > 10 µM
[45]
  IC50: > 10 µM
[46]
  IC50: > 10 µM
[47]
  IC50: > 10 µM
[48]
  IC50: > 10 µM
[49]
  IC50: > 10 µM
[50]
  IC50: > 10 µM
[51]
  IC50: > 10 µM
[52]
  IC50: > 10 µM
